# Activity calls are given as the source filed them. No cut-off for these calls is given here.
# Legend:
# HCT-116 = test: Cytotoxicity against human HCT116 cells assessed as cell viability after 48 hrs by MTT assay; format: cell-based; conditions: HCT-116, 48 h
# SW-620 [1] = test: Cytotoxicity against human SW620 cells assessed as cell viability after 48 hrs by MTT assay; format: cell-based; conditions: SW-620, 48 h
# [2] = Cytotoxicity against human SW620/AD300 cells assessed as cell viability after 48 hrs by MTT assay; format: cell-based; conditions: SW-620, 48 h
# [3] = Cytotoxicity against human CCD-18Co cells assessed as cell viability after 48 hrs by MTT assay; format: cell-based
# [4] = Cytotoxicity against human HFE cells assessed as cell viability after 72 hrs by MTT assay; format: cell-based
# [5] = target: Multidrug resistance-associated protein 1 (Homo sapiens, UniProt P33527); test: Inhibition of MRP1 (unknown origin)-mediated calcein-AM efflux expressed in HEK293/MRP1 cells at 0.5 uM after 1 hr by flow cytometry; format: cell-based; conditions: hek293/mrp1, 1 h
# Sequence of Multidrug resistance-associated protein 1 (P33527 whole entry): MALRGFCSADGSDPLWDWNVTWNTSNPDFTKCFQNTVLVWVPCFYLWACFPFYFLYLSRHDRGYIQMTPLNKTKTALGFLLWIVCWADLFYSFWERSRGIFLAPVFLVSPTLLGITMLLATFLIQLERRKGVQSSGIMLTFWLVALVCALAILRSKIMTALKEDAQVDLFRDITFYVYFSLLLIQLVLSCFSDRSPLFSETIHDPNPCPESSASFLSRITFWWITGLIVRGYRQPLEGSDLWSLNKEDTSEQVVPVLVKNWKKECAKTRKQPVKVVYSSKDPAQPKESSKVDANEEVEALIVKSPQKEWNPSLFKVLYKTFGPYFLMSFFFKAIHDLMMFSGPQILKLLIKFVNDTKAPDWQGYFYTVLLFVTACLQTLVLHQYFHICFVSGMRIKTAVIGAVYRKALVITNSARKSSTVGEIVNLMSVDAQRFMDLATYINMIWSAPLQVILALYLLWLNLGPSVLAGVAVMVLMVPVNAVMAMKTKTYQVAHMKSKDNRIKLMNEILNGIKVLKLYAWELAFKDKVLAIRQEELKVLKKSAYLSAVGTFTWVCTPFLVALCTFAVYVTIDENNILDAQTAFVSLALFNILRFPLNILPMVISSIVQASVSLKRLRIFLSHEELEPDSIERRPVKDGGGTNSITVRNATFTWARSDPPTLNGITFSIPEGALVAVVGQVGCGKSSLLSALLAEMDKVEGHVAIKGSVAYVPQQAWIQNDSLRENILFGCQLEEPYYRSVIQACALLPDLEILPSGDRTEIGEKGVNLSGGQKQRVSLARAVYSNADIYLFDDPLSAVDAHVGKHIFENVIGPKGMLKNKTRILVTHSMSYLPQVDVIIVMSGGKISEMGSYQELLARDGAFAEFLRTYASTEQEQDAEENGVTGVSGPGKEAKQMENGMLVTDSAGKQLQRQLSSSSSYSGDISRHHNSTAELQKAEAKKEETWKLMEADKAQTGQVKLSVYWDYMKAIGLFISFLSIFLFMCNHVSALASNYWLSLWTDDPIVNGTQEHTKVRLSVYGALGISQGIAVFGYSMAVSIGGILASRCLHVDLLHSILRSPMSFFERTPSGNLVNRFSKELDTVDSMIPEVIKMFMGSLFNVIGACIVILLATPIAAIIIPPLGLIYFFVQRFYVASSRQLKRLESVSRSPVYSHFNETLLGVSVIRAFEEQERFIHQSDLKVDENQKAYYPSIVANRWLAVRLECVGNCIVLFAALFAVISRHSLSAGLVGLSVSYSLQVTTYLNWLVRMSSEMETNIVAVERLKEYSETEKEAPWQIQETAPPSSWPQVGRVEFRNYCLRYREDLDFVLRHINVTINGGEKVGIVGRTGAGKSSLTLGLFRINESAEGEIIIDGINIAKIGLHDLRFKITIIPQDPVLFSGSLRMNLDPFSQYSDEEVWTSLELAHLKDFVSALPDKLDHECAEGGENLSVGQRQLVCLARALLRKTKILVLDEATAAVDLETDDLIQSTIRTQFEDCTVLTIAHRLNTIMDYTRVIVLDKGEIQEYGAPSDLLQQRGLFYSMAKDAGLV
# K562 [6] = test: Induction of UIC2 antibody binding to p-glycoprotein in human K562 cells at 0.5 uM preincubated for 10 mins followed by antibody addition measured after 45 mins by flow cytometry relative to tariquidar; format: cell-based
# [7] = target: T1, Broad substrate specificity ATP-binding cassette transporter ABCG2 (Homo sapiens, UniProt Q9UNQ0); test: Induction of 5D3 antibody binding to BCRP in human K562 cells at 0.5 uM preincubated for 10 mins followed by antibody addition measured after 45 mins by flow cytometry relative to tariquidar; format: cell-based; conditions: k562, 0.75 h
# T1 sequence (Q9UNQ0 whole entry): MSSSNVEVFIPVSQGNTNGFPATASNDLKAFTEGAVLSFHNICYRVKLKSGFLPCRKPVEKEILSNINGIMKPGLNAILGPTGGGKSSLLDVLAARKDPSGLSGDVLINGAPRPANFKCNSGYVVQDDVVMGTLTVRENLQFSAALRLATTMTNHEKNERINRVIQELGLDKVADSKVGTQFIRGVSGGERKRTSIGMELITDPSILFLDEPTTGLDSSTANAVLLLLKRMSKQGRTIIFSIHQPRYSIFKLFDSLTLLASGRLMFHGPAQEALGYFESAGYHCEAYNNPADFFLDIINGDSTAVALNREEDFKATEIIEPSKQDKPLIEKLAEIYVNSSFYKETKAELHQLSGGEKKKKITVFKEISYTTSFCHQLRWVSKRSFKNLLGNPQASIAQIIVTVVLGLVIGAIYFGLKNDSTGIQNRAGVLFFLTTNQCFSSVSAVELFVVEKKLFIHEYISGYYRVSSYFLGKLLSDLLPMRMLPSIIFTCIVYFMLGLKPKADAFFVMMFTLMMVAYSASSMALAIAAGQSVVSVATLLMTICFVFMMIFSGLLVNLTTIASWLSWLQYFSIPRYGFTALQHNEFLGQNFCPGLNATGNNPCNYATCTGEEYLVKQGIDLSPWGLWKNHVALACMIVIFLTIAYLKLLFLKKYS
# Hepatocyte = test: Cytotoxicity against rat hepatocytes assessed as cell viability after 72 hrs by MTT assay; format: cell-based; conditions: for IC50: Rattus norvegicus, Hepatocyte
# [8] = Potentiation of paclitaxel-induced cytotoxicity against human LCC6 cells at 200 nM after 72 hrs by SRB assay relative to control; format: functional
# [9] = target: T2, ATP-dependent translocase ABCB1 (Homo sapiens, UniProt P08183); test: Inhibition of p-glycoprotein in human LCC6/MDR cells assessed as increase of paclitaxel-induced cytotoxicity at 200 nM after 72 hrs by SRB assay relative to control; format: cell-based; conditions: 0.2 µM
# T2 sequence (P08183 whole entry): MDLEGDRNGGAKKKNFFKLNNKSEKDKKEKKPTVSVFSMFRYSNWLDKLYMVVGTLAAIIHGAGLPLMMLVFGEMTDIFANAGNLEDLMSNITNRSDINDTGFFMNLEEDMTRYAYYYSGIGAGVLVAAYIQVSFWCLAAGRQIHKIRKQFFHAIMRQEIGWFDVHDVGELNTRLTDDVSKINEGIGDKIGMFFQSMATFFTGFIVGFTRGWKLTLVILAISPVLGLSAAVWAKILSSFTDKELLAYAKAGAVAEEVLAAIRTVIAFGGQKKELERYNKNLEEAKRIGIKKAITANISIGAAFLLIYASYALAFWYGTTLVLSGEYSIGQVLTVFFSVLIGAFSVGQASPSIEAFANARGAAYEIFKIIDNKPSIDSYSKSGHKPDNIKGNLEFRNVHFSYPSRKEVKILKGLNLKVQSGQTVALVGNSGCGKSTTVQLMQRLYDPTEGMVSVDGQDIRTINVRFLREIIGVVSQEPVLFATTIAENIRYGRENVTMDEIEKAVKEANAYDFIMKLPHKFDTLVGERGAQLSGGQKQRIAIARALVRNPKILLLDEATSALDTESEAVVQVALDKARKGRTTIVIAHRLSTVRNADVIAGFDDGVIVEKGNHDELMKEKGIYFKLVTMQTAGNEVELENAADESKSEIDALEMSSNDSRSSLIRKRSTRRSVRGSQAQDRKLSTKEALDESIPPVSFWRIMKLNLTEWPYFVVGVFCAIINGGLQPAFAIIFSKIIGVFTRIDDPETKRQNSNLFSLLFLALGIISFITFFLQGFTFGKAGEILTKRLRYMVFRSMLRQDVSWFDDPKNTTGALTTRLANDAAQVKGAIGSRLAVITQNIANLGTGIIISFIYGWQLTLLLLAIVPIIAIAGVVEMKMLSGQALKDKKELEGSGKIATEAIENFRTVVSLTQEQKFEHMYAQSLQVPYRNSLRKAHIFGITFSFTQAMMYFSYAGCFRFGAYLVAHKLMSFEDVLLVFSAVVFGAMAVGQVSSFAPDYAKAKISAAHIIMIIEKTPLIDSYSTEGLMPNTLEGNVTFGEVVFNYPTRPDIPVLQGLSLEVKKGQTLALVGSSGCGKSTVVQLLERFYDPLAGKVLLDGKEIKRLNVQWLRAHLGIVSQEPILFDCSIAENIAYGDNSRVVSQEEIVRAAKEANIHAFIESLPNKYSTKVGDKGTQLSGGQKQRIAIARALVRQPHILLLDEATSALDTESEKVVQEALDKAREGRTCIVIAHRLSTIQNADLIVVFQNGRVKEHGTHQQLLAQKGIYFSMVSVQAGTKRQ
# MCF7 [10] = test: Potentiation of mitoxantrone-induced cytotoxicity against human MCF7 cells at 200 nM after 72 hrs by SRB assay relative to control; format: functional
# [11] = target: T1, Broad substrate specificity ATP-binding cassette transporter ABCG2; test: Inhibition of BCRP in human MCF-7 FLV1000 cells assessed as increase of mitoxantrone-induced cytotoxicity at 200 nM after 72 hrs by SRB assay relative to control; format: cell-based; conditions: 0.2 µM
# HepG2 [12] = test: Potentiation of doxorubicin-induced cytotoxicity against human HepG2 cells at 200 nM after 72 hrs by SRB assay relative to control; format: functional
# [13] = target: T2, ATP-dependent translocase ABCB1; test: Inhibition of p-glycoprotein in human HepG2 cells assessed as increase of doxorubicin-induced cytotoxicity at 200 nM after 72 hrs by SRB assay relative to control; format: cell-based; conditions: hepg2, 72 h, 0.2 µM
# SW-620 [14] = test: Potentiation of doxorubicin-induced cytotoxicity against human SW620 cells at 200 nM after 72 hrs by SRB assay relative to control; format: functional
# [15] = target: T2, ATP-dependent translocase ABCB1; test: Inhibition of p-glycoprotein in human SW620/AD300 cells assessed as increase of doxorubicin-induced cytotoxicity at 200 nM after 72 hrs by SRB assay relative to control; format: cell-based; conditions: sw-620, 72 h, 0.2 µM
# SW-620 [16] = test: Cytotoxicity against human SW620 cells at 200 nM after 72 hrs by SRB assay; format: cell-based; conditions: sw-620, 72 h, 0.2 µM
# [17] = Cytotoxicity against human SW620/AD300 cells expressing p-glycoprotein at 200 nM after 72 hrs by SRB assay; format: cell-based; conditions: sw-620, 72 h, 0.2 µM
# HepG2 [18] = test: Cytotoxicity against human HepG2 cells at 200 nM after 72 hrs by SRB assay; format: cell-based; conditions: hepg2, 72 h, 0.2 µM
# HepG2 [19] = test: Cytotoxicity against human HepG2 cells expressing p-glycoprotein at 200 nM after 72 hrs by SRB assay; format: cell-based; conditions: hepg2, 72 h, 0.2 µM
# MCF7 [20] = test: Cytotoxicity against human MCF7 cells at 200 nM after 72 hrs by SRB assay; format: cell-based; conditions: mcf7, 72 h, 0.2 µM
# [21] = Cytotoxicity against human MCF-7 FLV1000 cells expressing BCRP at 200 nM after 72 hrs by SRB assay; format: ADME, cell-based; conditions: mcf-7 flv1000, 72 h, 0.2 µM
# [22] = Cytotoxicity against human LCC6 cells at 200 nM after 72 hrs by SRB assay; format: cell-based; conditions: lcc6, 72 h, 0.2 µM
# [23] = Cytotoxicity against human LCC6 cells expressing p-glycoprotein at 200 nM after 72 hrs by SRB assay; format: cell-based; conditions: lcc6, 72 h, 0.2 µM
# [24] = target: T2, ATP-dependent translocase ABCB1; test: Inhibition of p-glycoprotein-mediated rhodamine-123 efflux in human K562/p-gp cells at 0.5 uM after 1 hr by flow cytometry relative to tariquidar; format: cell-based; conditions: 1 h, 0.5 µM
# [25] = target: T2, ATP-dependent translocase ABCB1; test: Inhibition of p-glycoprotein-mediated rhodamine-123 efflux in human K562/p-gp cells after 1 hr by flow cytometry; format: cell-based
# K562 [26] = test: Effect on rhodamine-123 efflux in wild type human K562 cells at 0.5 uM after 1 hr by flow cytometry; format: ADME, cell-based; conditions: k562, 1 h
# Homo sapiens = organism: Homo sapiens; test: Inhibition of p-glycoprotein (unknown origin) expressed in High five insect cell membranes assessed as ATP hydrolysis after 20 mins by colorimetric ATPase assay
# [27] = target: T2, ATP-dependent translocase ABCB1; test: Inhibition of p-glycoprotein-mediated doxorubicin efflux in human K562/p-gp cells at 1 uM after 1 hr by flow cytometry; format: cell-based
Compound,IC50 (HCT-116),IC50 (SW-620 [1]),IC50 [2],IC50 [3],IC50 [4],inhibition (INH) [5],IC50 (Hepatocyte),also measured
COc1cc2c(cc1OC)CN(CCc1ccc(NC(=O)c3ccccc3NS(=O)(=O)c3ccc(NC(C)=O)cc3)cc1)CC2,> 100 µM,> 100 µM,> 100 µM,> 100 µM,> 100 µM,Not Active,–,–
COc1cc2c(cc1OC)CN(CCc1ccc(NC(=O)c3ccccc3NC(=O)OCC3c4ccccc4-c4ccccc43)cc1)CC2,> 100 µM,> 100 µM,> 100 µM,> 100 µM,> 100 µM,Not Active,–,–
COc1cc2c(cc1OC)CN(CCc1ccc(NC(=O)c3ccccc3NS(=O)(=O)c3cc(Cl)ccc3Cl)cc1)CC2,25 µM,> 100 µM,> 100 µM,> 100 µM,> 100 µM,Not Active,–,–
CCCCCCCCCCCC(=O)Nc1ccccc1C(=O)Nc1ccc(CCN2CCc3cc(OC)c(OC)cc3C2)cc1,> 100 µM,> 100 µM,> 100 µM,> 100 µM,> 100 µM,Not Active,–,–
COc1cc2c(cc1OC)CN(CCc1ccc(NC(=O)c3ccccc3NS(=O)(=O)c3ccc(F)cc3)cc1)CC2,> 100 µM,> 100 µM,> 100 µM,> 100 µM,> 100 µM,Not Active,–,–
COc1cc2c(cc1OC)CN(CCc1ccc(NC(=O)c3ccccc3NS(=O)(=O)c3ccc(C)cc3)cc1)CC2,> 100 µM,> 100 µM,> 100 µM,> 100 µM,> 100 µM,Not Active,–,Activity (K562 [6]): inactive; Activity [7]: Not Active
COc1cc2c(cc1OC)CN(CCc1ccc(NC(=O)c3ccccc3NS(=O)(=O)c3cccc4c(N(C)C)cccc34)cc1)CC2,> 100 µM,> 100 µM,> 100 µM,> 100 µM,> 100 µM,Not Active,–,–
COc1ccc(S(=O)(=O)Nc2ccccc2C(=O)Nc2ccc(CCN3CCc4cc(OC)c(OC)cc4C3)cc2)cc1,> 100 µM,> 100 µM,> 100 µM,> 100 µM,> 100 µM,Not Active,–,–
COc1cc2c(cc1OC)CN(CCc1ccc(NC(=O)c3ccccc3NS(=O)(=O)c3ccc(C(F)(F)F)cc3)cc1)CC2,25 µM,> 100 µM,> 100 µM,> 100 µM,> 100 µM,Not Active,50 µM,–
COc1cc2c(cc1OC)CN(CCc1ccc(NC(=O)c3ccccc3NS(=O)(=O)c3ccccc3C(F)(F)F)cc1)CC2,> 100 µM,> 100 µM,> 100 µM,> 100 µM,> 100 µM,Not Active,100 µM,–
COc1cc2c(cc1OC)CN(CCc1ccc(NC(=O)c3cc(OC)c(OC)cc3NC(=O)c3cnc4ccccc4c3)cc1)CC2 [TARIQUIDAR],12.5 µM,25 µM,25 µM,25 µM,1.28 µM,Not Active,25 µM,fold change (FC) [8]: 1.1; fold change (FC) [9]: 1.9; fold change (FC) (MCF7 [10]): 0.8; fold change (FC) [11]: 3.7; fold change (FC) (HepG2 [12]): 0.23; fold change (FC) [13]: 0.32; fold change (FC) (SW-620 [14]): 0.57; fold change (FC) [15]: 1.85; Activity (SW-620 [16]): Non-toxic; Activity [17]: Non-toxic; Activity (HepG2 [18]): Non-toxic; Activity (HepG2 [19]): Non-toxic; Activity (MCF7 [20]): Non-toxic; Activity [21]: Non-toxic; Activity [22]: Non-toxic; Activity [23]: Non-toxic
COc1cc2c(cc1OC)CN(CCc1ccc(NC(=O)c3cc(OC)c(OC)cc3NS(=O)(=O)c3ccc(C(C)(C)C)cc3)cc1)CC2,> 100 µM,> 100 µM,> 100 µM,> 100 µM,> 5 µM,Not Active,–,inhibition (INH) [24]: Active; inhibition (INH) [25]: Dose-dependent effect; Activity (K562 [26]): Non-toxic; fold change (FC) [8]: 1; fold change (FC) [9]: 21; Activity [22]: Non-toxic; Activity [23]: Non-toxic; Activity (K562 [6]): 70.7%; inhibition (Homo sapiens): Dose-dependent effect
COc1cc2c(cc1OC)CN(CCc1ccc(NC(=O)c3ccccc3NS(=O)(=O)c3ccc(Cl)cc3)cc1)CC2,> 100 µM,> 100 µM,> 100 µM,> 100 µM,> 5 µM,–,–,–
CCCS(=O)(=O)Nc1ccccc1C(=O)Nc1ccc(CCN2CCc3cc(OC)c(OC)cc3C2)cc1,> 100 µM,> 100 µM,> 100 µM,> 100 µM,> 100 µM,Not Active,–,–
COc1cc2c(cc1OC)CN(CCc1ccc(NC(=O)c3cc(OC)c(OC)cc3NS(=O)(=O)c3ccc(C(F)(F)F)cc3)cc1)CC2,25 µM,> 100 µM,> 100 µM,> 100 µM,> 100 µM,Not Active,50 µM,–
COc1cc2c(cc1OC)CN(CCc1ccc(NC(=O)c3ccccc3N(S(=O)(=O)c3ccccc3)S(=O)(=O)c3ccccc3)cc1)CC2,> 100 µM,> 100 µM,> 100 µM,> 100 µM,> 5 µM,Not Active,–,"Activity (Hepatocyte; rat, hepatocytes): Non-toxic; inhibition (INH) [24]: Active; inhibition (INH) [25]: Dose-dependent effect; Activity (K562 [26]): Non-toxic; inhibition (INH) [27]: Active"
COc1cc2c(cc1OC)CN(CCc1ccc(NC(=O)c3ccccc3NS(=O)(=O)c3c(C)cc(C)cc3C)cc1)CC2,> 100 µM,> 100 µM,> 100 µM,> 100 µM,> 100 µM,Not Active,100 µM,–
COc1cc2c(cc1OC)CN(CCc1ccc(NC(=O)c3cc(OC)c(OC)cc3NS(=O)(=O)c3ccc(C)cc3)cc1)CC2,> 100 µM,> 100 µM,> 100 µM,> 100 µM,> 100 µM,Not Active,100 µM,–
COc1cc2c(cc1OC)CN(CCc1ccc(NC(=O)c3ccccc3NS(=O)(=O)c3ccccc3F)cc1)CC2,> 100 µM,> 100 µM,> 100 µM,> 100 µM,> 100 µM,Not Active,100 µM,–

# — ChEMBL document CHEMBL3611986, “Reversal of P-gp and BCRP-mediated MDR by tariquidar derivatives” (Eur J Med Chem, 2015)
